In publication PMC3810412 (Bioorganic & medicinal chemistry letters, 2013):
Like-named read-outs stand apart in the source and are kept apart here.

Columns and labels:
[1] = target: T1, GPI, Substance P induced muscle contraction (Cavia porcellus, UniProt P30547); test: GPI assay, Substance P antagonist; assay type: cell-based; conditions: in the presence of 1 μM naloxone, n = 4
[2] = target: T1, GPI, Substance P induced muscle contraction; conditions: 1 μM naloxone; ref 3a; cited from earlier work
rodent model = conditions: ref 2a, cited from earlier work
GPI (μ) = GPI (μ) (Cavia porcellus, UniProt P97266); conditions: read-out: GPI (μ) opioid agonist IC50; ref 3a; cited from earlier work
rat NK1 receptors = rat NK1 receptors (Rattus norvegicus, UniProt P14600); conditions: read-out: rNK1 Ki; [3H]Substance P; ref 3a; cited from earlier work
MVD (δ) = MVD (δ) (Mus musculus, UniProt P32300); conditions: read-out: MVD (δ) opioid agonist IC50; ref 3a; cited from earlier work
human NK1 receptors = human NK1 receptors (Homo sapiens, UniProt P25103); conditions: ratio; ref 3a; cited from earlier work
Sequence of human NK1 receptors (P25103 whole entry): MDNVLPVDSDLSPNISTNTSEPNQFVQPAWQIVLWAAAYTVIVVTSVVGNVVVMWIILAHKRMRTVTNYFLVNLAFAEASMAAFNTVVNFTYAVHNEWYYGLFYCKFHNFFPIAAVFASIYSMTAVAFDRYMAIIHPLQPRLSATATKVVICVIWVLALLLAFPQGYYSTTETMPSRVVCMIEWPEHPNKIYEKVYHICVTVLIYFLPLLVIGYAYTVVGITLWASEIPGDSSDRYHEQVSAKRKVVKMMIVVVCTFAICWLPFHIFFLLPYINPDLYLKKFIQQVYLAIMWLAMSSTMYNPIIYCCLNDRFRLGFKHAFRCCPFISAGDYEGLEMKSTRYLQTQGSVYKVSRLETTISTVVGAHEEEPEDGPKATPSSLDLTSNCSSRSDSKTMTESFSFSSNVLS

T1 sequence (P30547 whole entry): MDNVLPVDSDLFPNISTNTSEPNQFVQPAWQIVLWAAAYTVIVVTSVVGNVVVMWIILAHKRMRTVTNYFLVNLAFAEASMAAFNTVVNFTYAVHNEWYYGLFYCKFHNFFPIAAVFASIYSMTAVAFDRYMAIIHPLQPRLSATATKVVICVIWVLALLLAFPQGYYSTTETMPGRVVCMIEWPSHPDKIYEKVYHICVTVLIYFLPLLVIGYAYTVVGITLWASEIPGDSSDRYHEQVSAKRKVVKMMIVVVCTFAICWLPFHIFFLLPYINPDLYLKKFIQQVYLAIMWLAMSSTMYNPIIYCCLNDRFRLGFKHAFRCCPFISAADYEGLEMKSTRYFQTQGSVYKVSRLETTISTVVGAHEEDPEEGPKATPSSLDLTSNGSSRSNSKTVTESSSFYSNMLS
Sequence of rat NK1 receptors (P14600 whole entry): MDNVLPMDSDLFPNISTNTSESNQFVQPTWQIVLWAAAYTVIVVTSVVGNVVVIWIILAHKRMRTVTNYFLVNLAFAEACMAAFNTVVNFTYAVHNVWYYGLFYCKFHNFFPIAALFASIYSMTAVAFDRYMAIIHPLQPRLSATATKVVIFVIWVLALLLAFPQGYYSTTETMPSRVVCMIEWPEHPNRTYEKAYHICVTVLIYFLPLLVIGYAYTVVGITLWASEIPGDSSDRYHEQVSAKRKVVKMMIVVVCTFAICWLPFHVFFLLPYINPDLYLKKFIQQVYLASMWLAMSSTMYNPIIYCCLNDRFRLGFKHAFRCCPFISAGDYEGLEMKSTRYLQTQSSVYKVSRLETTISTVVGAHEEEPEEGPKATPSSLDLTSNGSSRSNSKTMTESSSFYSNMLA
Sequence of MVD (δ) (P32300 whole entry): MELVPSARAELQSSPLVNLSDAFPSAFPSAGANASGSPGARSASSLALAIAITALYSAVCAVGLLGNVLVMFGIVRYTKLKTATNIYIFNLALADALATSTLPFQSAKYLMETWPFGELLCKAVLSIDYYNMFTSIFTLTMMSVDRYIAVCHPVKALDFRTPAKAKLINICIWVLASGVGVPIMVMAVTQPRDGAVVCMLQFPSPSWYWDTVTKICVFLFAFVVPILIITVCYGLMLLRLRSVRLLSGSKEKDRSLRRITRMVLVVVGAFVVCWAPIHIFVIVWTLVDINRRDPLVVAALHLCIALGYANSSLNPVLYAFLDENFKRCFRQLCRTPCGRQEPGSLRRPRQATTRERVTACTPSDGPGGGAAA

Question: For `CC(=O)N[C@@H](Cc1c[nH]c2ccccc12)C(=O)OCc1cc(C(F)(F)F)cc(C(F)(F)F)c1` [L-732,138], which “GPI Substance P antagonist Ke” value [1] is on record?
Answer: 250 nM

Question: With “Tyr^1-DAla^2-Gly^3-Phe^4-Met^5-Pro^6-Leu^7-Trp^8-O-[3′,5′-Bzl(CF3)2] [compound 1]” as the molecule, how does the “GPI Substance P antagonist Ke” value [2] read?
Answer: 25 nM

Question: What about the opioid-induced tolerance (rodent model) of the same molecule?
Answer: no sign of opioid-induce tolerance

Question: And the reward liability (rodent model)?
Answer: no development of reward liability

Question: And the “effect on neuropathic pain” value (rodent model; rodent model)?
Answer: reverse neuropathic pain

Question: And the IC50 (GPI (μ))?
Answer: 360 nM

Question: What about the Ki (rat NK1 receptors) of the same molecule?
Answer: 0.29 nM

Question: What about the IC50 (MVD (δ)) of the same molecule?
Answer: 22 nM

Question: What about the “Ki(hNK1)/Ki(rNK1)” value (human NK1 receptors) of the same molecule?
Answer: 3.5
